From ChEMBL document CHEMBL6074671, “Discovery of Pyridine-2-Carboxamides Derivatives as Potent and Selective HPK1 Inhibitors for the Treatment of Cancer” (J Med Chem, 2024)
pEC50, pIC50: −log10 of the molar value. One block for each molecule: values may come before it.

How the values were obtained:
[1] = molecular target: T1, Mitogen-activated protein kinase kinase kinase kinase 1 (Homo sapiens, UniProt Q92918); test: Inhibition of human recombinant wild type N-terminal HPK1 (1 to 346 residues) infected in insect Sf21 cells using fluorescein-PKC as substrate preincubated for 10 mins followed by substrate addition and measured after 90 mins by microplate reader based analysis; format: single protein
[2] = molecular target: T2, Mitogen-activated protein kinase kinase kinase kinase 3 (Homo sapiens, UniProt Q8IVH8); test: Inhibition of GLK (unknown origin)
T2 sequence (Q8IVH8 whole entry): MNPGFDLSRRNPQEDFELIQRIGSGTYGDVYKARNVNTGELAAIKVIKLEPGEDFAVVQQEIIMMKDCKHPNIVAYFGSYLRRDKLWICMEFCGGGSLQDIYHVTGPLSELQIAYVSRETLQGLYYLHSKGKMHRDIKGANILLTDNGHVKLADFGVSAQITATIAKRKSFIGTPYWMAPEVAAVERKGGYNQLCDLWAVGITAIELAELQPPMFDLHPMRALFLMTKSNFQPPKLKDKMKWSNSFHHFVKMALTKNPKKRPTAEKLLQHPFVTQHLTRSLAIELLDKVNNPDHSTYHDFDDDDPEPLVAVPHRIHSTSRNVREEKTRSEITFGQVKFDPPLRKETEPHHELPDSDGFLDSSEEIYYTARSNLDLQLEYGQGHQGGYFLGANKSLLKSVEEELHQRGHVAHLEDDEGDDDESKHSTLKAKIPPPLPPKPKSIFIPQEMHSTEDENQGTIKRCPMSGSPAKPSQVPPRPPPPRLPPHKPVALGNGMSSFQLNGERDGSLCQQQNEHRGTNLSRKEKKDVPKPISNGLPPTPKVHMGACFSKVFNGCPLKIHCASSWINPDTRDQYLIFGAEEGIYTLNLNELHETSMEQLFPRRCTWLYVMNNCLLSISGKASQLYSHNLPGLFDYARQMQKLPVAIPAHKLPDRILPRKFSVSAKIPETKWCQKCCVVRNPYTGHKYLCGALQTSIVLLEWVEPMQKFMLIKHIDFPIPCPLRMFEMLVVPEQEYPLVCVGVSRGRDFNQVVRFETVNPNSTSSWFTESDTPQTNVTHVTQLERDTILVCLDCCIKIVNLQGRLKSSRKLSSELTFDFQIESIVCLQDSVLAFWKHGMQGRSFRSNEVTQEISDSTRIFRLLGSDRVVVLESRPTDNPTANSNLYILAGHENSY

[3] = molecular target: T1, Mitogen-activated protein kinase kinase kinase kinase 1; test: Inhibition of HPK1 in human PBMC cells assessed as IL-2 level pretreated for 4 hrs followed by anti-CD3/CD28 stimulation for 20 mins by HTRF method; format: cell-based
[4] = in vivo; details: Sprague-Dawley, rat, plasma, iv
Description: Clearance in Sprague-Dawley rat plasma administered as iv dose

[5] = in vivo; details: Sprague-Dawley, rat, iv
Description: Volume of distribution in Sprague-Dawley rat administered as iv dose

[6] = in vivo; details: Sprague-Dawley, rat, po
Description: Half life in Sprague-Dawley rat administered as po dose

[7] = in vivo; details: Sprague-Dawley, rat, po; remark: listed apart in the source
Description: Oral bioavailability in Sprague-Dawley rat

[8] = Inhibition of pSLP76 in human PBMC cells incubated for 4 hrs by HTRF method; format: cell-based
[9] = Effect on IL-2 secretion in human T cells by ELISA method; format: functional, cell-based; details: T-cell
[10] = Effect on IFN-gamma secretion in human T cells by ELISA method; format: functional, cell-based; details: T-cell
[11] = Clearance in Balb/c mouse plasma administered as iv dose; format: ADME, organism-based
[12] = Volume of distribution in Balb/c mouse administered as iv dose; format: ADME, organism-based; details: in vivo
[13] = Dose normalized AUC (0 to 24 hrs) in Balb/c mouse administered as po dose; format: ADME, organism-based; details: in vivo
[14] = Half life in Balb/c mouse administered as po dose; format: ADME, organism-based; details: in vivo
[15] = Oral bioavailability in Balb/c mouse; format: ADME, organism-based; details: in vivo
[16] = Dose normalized AUC (0 to 24 hrs) in Sprague-Dawley rat at 10 mg/kg, po; format: ADME, organism-based; details: in vivo
[17] = Half life in Sprague-Dawley rat at 10 mg/kg, po; format: ADME, organism-based; details: in vivo
[18] = Oral bioavailability n Sprague-Dawley rat at 10 mg/kg; format: ADME, organism-based; details: in vivo
[19] = Dose normalized AUC (0 to 24 hrs) in Balb/c mouse at 10 mg/kg, po; format: ADME, organism-based; details: in vivo
[20] = Half life in Balb/c mouse at 10 mg/kg, po; format: ADME, organism-based; details: in vivo
[21] = Oral bioavailability in Balb/c mouse at 10 mg/kg; format: ADME, organism-based; details: in vivo
[22] = dog, in vivo, po, 2 mg/kg
[23] = in vivo; details: Balb/c, mouse, plasma, iv, 1 mg/kg
Description: Clearance in Balb/c mouse plasma at 1 mg/kg, iv

[24] = in vivo; details: Balb/c, mouse, iv, 1 mg/kg
Description: Volume of distribution in Balb/c mouse at 1 mg/kg, iv

[25] = in vivo; details: Sprague-Dawley, rat, plasma, iv, 1 mg/kg
Description: Clearance in Sprague-Dawley rat plasma at 1 mg/kg, iv

[26] = in vivo; details: Sprague-Dawley, rat, iv, 1 mg/kg
Description: Volume of distribution in Sprague-Dawley rat at 1 mg/kg, iv

[27] = in vivo; details: Beagle, dog, plasma, iv, 1 mg/kg
Description: Clearance in Beagle dog plasma at 1 mg/kg, iv

[28] = in vivo; details: Beagle, dog, iv, 1 mg/kg
Description: Volume of distribution in Beagle dog at 1 mg/kg, iv

[29] = in vivo; details: Beagle, dog, po, 2 mg/kg
Description: Half life in Beagle dog at 2 mg/kg, po

[30] = in vivo; details: Beagle, dog, po, 2 mg/kg; remark: listed apart in the source

T1 sequence (Q92918 whole entry, the tested form may be a part): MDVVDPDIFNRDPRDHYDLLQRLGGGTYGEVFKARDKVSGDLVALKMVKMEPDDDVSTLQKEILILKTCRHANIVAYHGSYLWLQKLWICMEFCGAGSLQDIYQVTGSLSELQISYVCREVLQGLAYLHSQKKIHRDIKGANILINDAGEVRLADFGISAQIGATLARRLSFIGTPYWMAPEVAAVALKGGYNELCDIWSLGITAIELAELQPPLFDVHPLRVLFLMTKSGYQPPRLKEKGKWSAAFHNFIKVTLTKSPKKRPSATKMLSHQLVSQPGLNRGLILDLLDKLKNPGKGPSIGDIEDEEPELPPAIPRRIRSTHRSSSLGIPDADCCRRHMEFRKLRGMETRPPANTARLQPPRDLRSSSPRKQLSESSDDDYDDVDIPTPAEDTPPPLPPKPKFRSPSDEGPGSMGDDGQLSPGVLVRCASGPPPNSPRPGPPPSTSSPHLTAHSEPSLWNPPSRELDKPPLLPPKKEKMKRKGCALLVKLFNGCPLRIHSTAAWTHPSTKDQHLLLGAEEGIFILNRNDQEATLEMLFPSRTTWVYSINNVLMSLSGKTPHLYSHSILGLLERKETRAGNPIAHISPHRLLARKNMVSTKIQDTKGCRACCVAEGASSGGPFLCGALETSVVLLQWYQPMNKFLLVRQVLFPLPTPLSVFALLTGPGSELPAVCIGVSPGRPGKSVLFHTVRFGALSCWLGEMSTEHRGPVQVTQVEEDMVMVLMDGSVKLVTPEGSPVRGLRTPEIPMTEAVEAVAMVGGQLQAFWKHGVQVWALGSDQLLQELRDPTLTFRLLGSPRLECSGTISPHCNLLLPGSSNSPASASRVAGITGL

SMILES: COc1cc(Nc2ccc3c(n2)CN(C)C32CCCC2)c(C(N)=O)nc1-c1cccc2c1ncn2C
pIC50 [1]: > 9.29 | pIC50 [2]: 6.79 | pEC50 [3]: 6.83

SMILES: CN(C)Cc1nc(Nc2ccc(-c3cnc4cc(F)ccn34)c3c2C(=O)NC3)ccc1C1CCOCC1
pIC50 [8]: 7.85 | pEC50 [9]: 7.45 | pEC50 [10]: 7.65

SMILES: CN1Cc2nc(Nc3ccc(C4=CCCC(NC(=O)c5ccccc5)C4)nc3C(N)=O)ccc2C12CCOCC2 (stereo unspecified)
pIC50 [1]: 9.19 | pIC50 [2]: 7.55 | clearance [11]: 23.7 mL/min/kg | Vd [12]: 1.08 L/kg | AUC/dose [13]: 273.3 ng·h/mL | half-life [14]: 55.8 min | bioavailability [15]: 38.6%

SMILES: CCN1Cc2nc(Nc3cc(OC)c(-c4cccc5c4ncn5C)nc3C(N)=O)ccc2C12CCOCC2
pIC50 [1]: > 9.29 | pIC50 [2]: 6.62 | pEC50 [3]: 6.78

SMILES: CN1Cc2nc(Nc3cc(C4CC4)c(-c4cccc5c4ncn5C)nc3C(N)=O)ccc2C12CCN(C1COC1)CC2
pIC50 [1]: > 9.29 | pIC50 [2]: 6.94 | pEC50 [3]: 7.49 | AUC/dose [16]: 4502 ng·h/mL | half-life [17]: 157 min | bioavailability [18]: 54.7% | AUC/dose [19]: 308.2 ng·h/mL | half-life [20]: 260 min | bioavailability [21]: 24.6% | AUC/dose [22]: 289.2 ng·h/mL | clearance [23]: 13.2 mL/min/kg | Vd [24]: 1.08 L/kg | clearance [25]: 19.8 mL/min/kg | Vd [26]: 2.25 L/kg | clearance [27]: 14.7 mL/min/kg | Vd [28]: 6 L/kg | half-life [29]: 364 min | bioavailability [30]: 26.3%

SMILES: COc1cc(Nc2ccc3c(n2)CN(C)C32CCOCC2)c(C(N)=O)nc1-c1cncc2c1ccn2C
pIC50 [1]: > 9.29 | pIC50 [2]: 7.02

Now from value to molecule:

pIC50 [1]: > 9.29 | pIC50 [2]: 6.49 | pEC50 [3]: 6.99
SMILES: COc1cc(Nc2ccc3c(n2)CN(C)C32CCOCC2)c(C(N)=O)nc1-c1cccc2c1ncn2C(F)F

pIC50 [1]: > 9.29 | pIC50 [2]: 6.62 | pEC50 [3]: 8.00 | clearance [4]: 32.6 mL/min/kg | Vd [5]: 1.75 L/kg | half-life [6]: 73.2 min | bioavailability [7]: 24.3%
SMILES: COc1cc(Nc2ccc3c(n2)CN(C)C32CCOCC2)c(C(N)=O)nc1-c1cncc2c1ncn2C

pIC50 [1]: > 9.29 | pIC50 [2]: 7.57
SMILES: COc1cc(Nc2ccc3c(n2)CN(C)C32CCOCC2)c(C(N)=O)nc1-c1ccnc2c1ccn2C

pIC50 [1]: > 9.29 | pIC50 [2]: 6.82 | pEC50 [3]: 7.26
SMILES: CN1Cc2nc(Nc3cc(OC(F)F)c(-c4cccc5c4ncn5C)nc3C(N)=O)ccc2C12CCOCC2
